Experimental findings from PubChem BioAssay (NCI) are described below.

Holding throughout (assay): DTP human tumour cell line panel, 48 h
Assay [1] relates to BT-549 breast.
The test system of assay [2] is HOP-92 NSCLC.
The subject of assay [3] is IGROV1 ovarian.
Assay [4] relates to MDA-MB-231 breast.
Assay [5] concerns ACHN renal.
Assay [6] relates to A549 NSCLC.
Assay [7] concerns MOLT-4 leukemia.
Assay [8] concerns U251 CNS.
Assay [9] deals with MALME-3M melanoma.
The subject of assay [10] is KM20L2 colon.

SMILES strings stand for the structures. Several values for one entry are separate records, joined by “and”; a condition that tells them apart may be missing. Equal values may be shown once.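 All cell lines were grown in 96-well plates and treated with compound for 48 hours. The concentration for 50% growth inhibition is given as GI50. TGI: concentration producing complete growth inhibition.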

For orientation: TGI means the concentration giving total growth inhibition. As for `N#CN1C2CCC1CC(=O)C2`, the TGI in assay [1], in [2], in [3], in assay [4], in assay [5] and in assay [6] was above 100 µM each time. Also, the TGI in assay [7], in assay [8] and in assay [9] was above 100 µM each time.
Consider `N#CCCN(CCC#N)c1ccc(/C=C2\N=C(c3ccccc3)N(c3ccc(F)cc3)C2=O)cc1`, for which the TGI in [1], in [2], in assay [3], in assay [4], in assay [5] and in [6] was above 100 µM throughout. Besides, the TGI in [7], in assay [8] and in assay [9] was above 100 µM in each case.
Take `C[C@@H]1OC(=O)C[C@H]2CC(=O)N(CCC3CN(C(=O)OCc4ccccc4)c4ccccc43)C[C@@H]21` (stereo partly drawn): the TGI in assay [1], in [2], in assay [3], in [4], in assay [5] and in assay [6] was above 100 µM each time. In addition, the total growth inhibition concentration (TGI) in [7], in assay [8] and in [9] was above 100 µM each time.
As for `COc1ccc2c(c1)C(=O)CC1c3cnccc3C(=O)N21` (stereo not drawn), the TGI in [1], in assay [2], in [3], in assay [4], in assay [5] and in [6] was above 100 µM in each case. The TGI in assay [7], in [8] and in [9] was above 100 µM in each case.
As for `CC1=NNC(=O)C1C1C(=O)NN=C(c2c[nH]c3ccccc23)C1Br` (stereo not drawn), the TGI in assay [1], in [2], in assay [3], in assay [4], in assay [5] and in [6] was above 100 µM each time. For the same compound, the TGI is 80.3 µM in assay [7], above 100 µM in assay [8] and above 100 µM in assay [9].
As for `CC(C)(C)c1ccc(OCCOc2ccc(C(C)(C)C)cc2N)c(N)c1`, the TGI in assay [1], in assay [2], in assay [3], in assay [4], in assay [5] and in assay [6] was above 100 µM in each case. Also, the TGI in assay [7], in assay [8] and in assay [9] was above 100 µM throughout.
Broadly, the GI50 is the concentration at which growth is held to half of that of the control. Take `CC(=O)c1c(-c2cccc3ccccc23)c(C#N)c(=S)n(C2OC(CO)C(O)C(O)C2O)c1C` (stereo not drawn): the TGI in assay [1], in [2], in assay [3], in assay [4], in [5] and in [6] was above 100 µM throughout. Besides, the total growth inhibition concentration (TGI) in assay [7], in assay [8] and in assay [9] was above 100 µM each time. In addition, the GI50 in [4] was > 100 µM and 37.5 µM; in assay [8] it was > 100 µM and 48.9 µM; in assay [9] it was above 100 µM.
As to `CC(C)/C(Cl)=N/OC(=O)Nc1ccc(Br)cc1`, the TGI in [1] was 9.19 µM; in assay [2], 3.35 µM; in [3] it was 27.1 µM; in assay [4] it was 31.2 µM; in assay [5], 3.77 µM; in [6], 39.5 µM. Also, the figures for the TGI in assay [7], in [8] and in assay [9] were 5.45 µM, 37.3 µM and 3.85 µM, respectively.
Regarding `C=CCOC(=O)N1c2ccc(O[Si](C)(C)C(C)(C)C)cc2[C@@]23O[C@@]24[C@@H]1C#C/C=C\C#C[C@]3(O)C(OC)(OC)C[C@@H]4C`, the TGI in [1], in assay [2], in assay [3], in assay [4], in assay [5] and in assay [6] was above 100 µM throughout. Also, the TGI is above 42.9 µM in assay [7], above 100 µM in [8] and above 100 µM in assay [9].
For `CNC(C)(C)Cc1ccc(Cl)cc1`, the TGI in [3], in assay [5], in [6], in [7], in [10] and in assay [8] was above 100 µM each time. This compound also yielded a concentration for total growth inhibition (TGI) in assay [9] above 100 µM.
With `c1ccc(-c2csc3c4ccccc4c4ccccc4[n+]23)cc1`, the TGI is 24.9 µM in assay [2]; 31.3 µM in assay [3]; 30.6 µM in assay [5]; 19.5 µM in [6]; above 25.5 µM in assay [7]; 20.6 µM in [10]. Besides, the figures for the TGI in assay [8] and in assay [9] were 13.8 µM and 3.21 µM, respectively.
On to `CC(=O)O[C@H]1CC(C)(C)C(=C=C/C(C)=C/C=C/C=C/C=C(C)/C=C2C=C(/C=C/[C@@]34O[C@]3(C)C[C@@H](O)CC4(C)C)C(=O)O/2)[C@](C)(O)C1`, for which the concentration for total growth inhibition (TGI) in [1] was 8.16 µM; in assay [2], above 100 µM; in assay [3], 7.72 µM; in [4], 97.4 µM; in [5] it was 48.7 µM; in assay [6], 50.2 µM. Besides, the TGI in assay [7] was 24.1 µM; in assay [8], above 100 µM; in assay [9], 41.9 µM.
Turning to `C1=C(c2ccccc2)SC(N2CCCCC2)S1` (stereo not drawn), the TGI in assay [2], in assay [3], in assay [7], in assay [10], in [8] and in [9] was above 100 µM each time.
For `CN(C)CCNc1ccc2c(=O)n(CCN(C)C)c(=O)n3c4ccc(O)cc4c(=O)c1c23`, the TGI is 2.35 µM in [1]; 0.0941 µM in assay [2]; 0.53 µM in assay [3]; 0.12 µM in assay [4]; below 0.01 µM in assay [5]; 1.47 µM in assay [6]. The TGI is below 0.01 µM in assay [7], 0.439 µM in [8] and 0.45 µM in assay [9].
